Results as given in the NIST ThermoML archive (doi:10.1007/s10765-011-1087-7).

Tests used:
[1] = xn = mol fraction of the nth substance listed; conditions: 101 kPa, Liquid; for speed of sound: Pulse-echo method
[2] = refractive index (Na D-line) (dimensionless); xn = mol fraction of the nth substance listed; conditions: 101 kPa, Liquid

Clc1ccc(Cl)c(Cl)c1 [1,2,4-trichlorobenzene] + CCCCCCC(C)O
Conditions	mass density, [1] [kg/m3]	refractive index, [2]	speed of sound, [1] [m/s]	viscosity, [1] [mPa·s]
298.15 K, x1 = 0.0762	863.97	1.4309	1301.7	5.912
298.15 K, x1 = 0.1303	896.31	1.4366	1296.7	5.452
298.15 K, x1 = 0.2045	939.57	1.4436	1290.1	4.912
298.15 K, x1 = 0.2713	977.28	1.4501	1283.7	4.455
298.15 K, x1 = 0.3461	1018.61	1.4569	1278	3.981
298.15 K, x1 = 0.4173	1057.62	1.4631	1273.2	3.575
298.15 K, x1 = 0.4857	1095.63	1.4698	1269.8	3.223
298.15 K, x1 = 0.5454	1129.39	1.4758	1267	2.955
298.15 K, x1 = 0.6115	1167.72	1.4834	1264.2	2.699
298.15 K, x1 = 0.6798	1209.26	1.4919	1261.9	2.462
298.15 K, x1 = 0.7466	1252.54	1.5009	1259.9	2.281
298.15 K, x1 = 0.8183	1302	1.5119	1259.2	2.118
298.15 K, x1 = 0.8713	1341.45	1.521	1260.4	2.035
298.15 K, x1 = 0.9361	1392.95	1.534	1264.2	1.945
298.15 K, x1 = 1	1448.41	1.548	1272	1.926
303.15 K, x1 = 0.0762	860.11	1.4285	1283.9	4.79
303.15 K, x1 = 0.1303	892.4	1.4337	1279.1	4.507
303.15 K, x1 = 0.2045	935.51	1.4406	1273	4.124
303.15 K, x1 = 0.2713	973.11	1.4469	1266.9	3.783
303.15 K, x1 = 0.3461	1014.26	1.4539	1261.6	3.433
303.15 K, x1 = 0.4173	1053.06	1.4607	1256.9	3.12
303.15 K, x1 = 0.4857	1090.83	1.4676	1253.5	2.849
303.15 K, x1 = 0.5454	1124.39	1.474	1250.5	2.632
303.15 K, x1 = 0.6115	1162.51	1.4818	1248	2.405
303.15 K, x1 = 0.6798	1203.8	1.4905	1245.6	2.205
303.15 K, x1 = 0.7466	1246.93	1.4999	1244.1	2.045
303.15 K, x1 = 0.8183	1296.19	1.511	1243.5	1.909
303.15 K, x1 = 0.8713	1335.49	1.5202	1244.9	1.821
303.15 K, x1 = 0.9361	1386.92	1.5329	1248.7	1.769
303.15 K, x1 = 1	1442.43	1.546	1256.4	1.76
308.15 K, x1 = 0.0762	855.92	1.4271	1266.3	3.886
308.15 K, x1 = 0.1303	887.97	1.4325	1261.9	3.674
308.15 K, x1 = 0.2045	930.81	1.4396	1255.8	3.413
308.15 K, x1 = 0.2713	968.5	1.4459	1250.3	3.169
308.15 K, x1 = 0.3461	1009.82	1.4525	1244.9	2.915
308.15 K, x1 = 0.4173	1048.71	1.4591	1240.3	2.674
308.15 K, x1 = 0.4857	1086.14	1.4658	1237.1	2.456
308.15 K, x1 = 0.5454	1119.57	1.4718	1234.6	2.296
308.15 K, x1 = 0.6115	1157.41	1.4792	1232	2.117
308.15 K, x1 = 0.6798	1198.89	1.4877	1229.9	1.961
308.15 K, x1 = 0.7466	1241.6	1.4969	1228.4	1.827
308.15 K, x1 = 0.8183	1290.6	1.5078	1228	1.725
308.15 K, x1 = 0.8713	1329.97	1.517	1229.3	1.666
308.15 K, x1 = 0.9361	1381.4	1.5295	1233.4	1.628
308.15 K, x1 = 1	1436.45	1.543	1240.9	1.617

CCCCCCC(C)O (stereo unspecified) [2-octanol] + Clc1cccc(Cl)c1
Conditions	mass density, [1] [kg/m3]	refractive index, [2]	speed of sound, [1] [m/s]	viscosity, [1] [mPa·s]
298.15 K, x2 = 0	–	–	–	6.566
298.15 K, x2 = 0.0694	840.61	1.4312	1300.1	5.146
298.15 K, x2 = 0.1166	857.54	1.4366	1295.8	4.43
298.15 K, x2 = 0.1823	881.65	1.4436	1290	3.7
298.15 K, x2 = 0.2395	903.41	1.4494	1285.1	3.231
298.15 K, x2 = 0.3143	932.89	1.4567	1278.7	2.754
298.15 K, x2 = 0.379	959.33	1.4631	1273.3	2.429
298.15 K, x2 = 0.4488	988.41	1.4698	1268	2.138
298.15 K, x2 = 0.5084	1014.16	1.4758	1263.7	1.934
298.15 K, x2 = 0.582	1047.42	1.4838	1258.9	1.715
298.15 K, x2 = 0.6659	1086.85	1.4939	1254.6	1.505
298.15 K, x2 = 0.7208	1114.21	1.5009	1252.4	1.394
298.15 K, x2 = 0.7847	1147.67	1.5099	1250.7	1.279
298.15 K, x2 = 0.8663	1194.04	1.5224	1250.4	1.151
298.15 K, x2 = 0.9434	1243.52	1.5349	1251.8	1.065
303.15 K, x2 = 0	–	–	–	5.178
303.15 K, x2 = 0.0694	836.24	1.4293	1282.4	4.351
303.15 K, x2 = 0.1166	852.87	1.4348	1278.1	3.821
303.15 K, x2 = 0.1823	876.71	1.4418	1272.3	3.246
303.15 K, x2 = 0.2395	898.21	1.4475	1267.5	2.847
303.15 K, x2 = 0.3143	927.45	1.4546	1261.2	2.412
303.15 K, x2 = 0.379	953.45	1.4608	1256.1	2.113
303.15 K, x2 = 0.4488	982.39	1.4677	1251	1.857
303.15 K, x2 = 0.5084	1007.74	1.4738	1246.9	1.679
303.15 K, x2 = 0.582	1040.69	1.4819	1242.3	1.51
303.15 K, x2 = 0.6659	1079.96	1.4921	1238.3	1.378
303.15 K, x2 = 0.7208	1107.42	1.4994	1236.2	1.302
303.15 K, x2 = 0.7847	1141.2	1.5084	1234.6	1.226
303.15 K, x2 = 0.8663	1187.75	1.5209	1234.2	1.14
303.15 K, x2 = 0.9434	1236.9	1.5327	1235.6	1.042
308.15 K, x2 = 0	–	–	–	4.162
308.15 K, x2 = 0.0694	832.14	1.4273	1264.6	3.517
308.15 K, x2 = 0.1166	848.59	1.4327	1260.1	3.17
308.15 K, x2 = 0.1823	871.91	1.4397	1254.2	2.759
308.15 K, x2 = 0.2395	892.9	1.4455	1249.6	2.463
308.15 K, x2 = 0.3143	920.82	1.4527	1243.5	2.119
308.15 K, x2 = 0.379	945.97	1.4589	1238.9	1.892
308.15 K, x2 = 0.4488	974.25	1.4658	1233.9	1.673
308.15 K, x2 = 0.5084	999.57	1.4718	1230.2	1.512
308.15 K, x2 = 0.582	1032.22	1.4798	1226	1.358
308.15 K, x2 = 0.6659	1071.96	1.4898	1221.9	1.207
308.15 K, x2 = 0.7208	1099.76	1.4969	1219.4	1.132
308.15 K, x2 = 0.7847	1134.17	1.5057	1217.9	1.05
308.15 K, x2 = 0.8663	1181.99	1.518	1217.3	0.956
308.15 K, x2 = 0.9434	1231.4	1.5298	1219.3	0.898
